According to publication PMC7998669, “7-(2-Anilinopyrimidin-4-yl)-1-benzazepin-2-ones Designed by a “Cut and Glue” Strategy Are Dual Aurora A/VEGF-R Kinase Inhibitors” (Molecules, 2021):

Experiments:
Assay in all cases: radiometric 33PanQinase protein kinase assay
Assay type in all cases: biochemical
Conditions in all cases: radiometric assay, 1 µM ATP
VEGF-R2 = biological target: T1, VEGF-R2 (Homo sapiens, UniProt P35968)
T1 construct: host or cells: Sf9 (baculovirus)
Experimental: (§1) The inhibitory activity of prototype 2a was determined in a panel of 24 tumor-relevant protein kinases using a radiometric assay. Only the kinases Aurora A, VEGF-R2 and VEGF-R3 were inhibited with single digit micromolar IC50 values (Table 2). Structural modifications were then implemented, particularly directed to improve inhibition of Aurora A. The so-designed congeners with small substituents at the aniline ring 2b–2n were examined for inhibition of Aurora A and of VEGF-R2, VEGF-R3 and Aurora B for comparison (Table 3).
(§2) The screening for protein kinase inhibition was performed with the radiometric ^33Panqinase activity assay at Reaction Biology Europe GmbH (Freiburg) using a robotic system (Beckmann Coulter/SagianRoboter) and 96-well plates (FlashPlates, Perkin/Elmer/NEN, Boston, MA, USA). In brief, the transfer of ^33P-phosphate into the substrate was measured with a microplate scintillation counter (Microbeta Trilux, Wallace). Protein kinases were expressed in Sf9 cells as recombinant glutathione S-transferase (GST) or polyhistidine (His)-tagged proteins in baculovirus. Isolation and purification of expressed kinases were performed with affinity chromatography by using GSH agarose (Sigma) or Ni-NTA agarose (Qiagen). The standard solution for each enzyme contained: 60 mM HEPES-NaOH (pH 7.5), 3 mM MgCl2, 3 µM sodium orthovanadate, 1.2 mM DTT, 50 µg/mL PEG20000 and 1 µM [γ-^33P]-ATP (approximately 5 × 10^5 cpm per well). In chronological order the reaction mixture was prepared: 20 µL standard solution, 5 µL ATP solution in water, 5 µL of the compound in 10% DMSO and 20 µL of enzyme/substrate mixture (50:50). Each kinase contained different substrates in different concentrations: 125 ng/50 µL Poly(Glu, Tyr)4:1 for 20 ng/50 µL IGF1-R, 25 ng/50 µL IGF1-R, 20 ng/50 µL EGF-R, 25 ng/50 µL EGF-R, 40 ng/50 µL EGF-R, 10 ng/50 µL EPHB4, 20 ng/50 µL EPHB4, 200 ng/50 µL ERBB2, 10 ng/50 µL SRC, 100 ng/50 µL FAK, 200 ng/50 µL FAK, 50 ng/50 µL VEGF-R2, 100 ng/50 µL VEGF-R3, 200 ng/50 µLTIE2; 250 ng/50 µL Poly(Glu, Tyr)4:1 for 200 ng/50 µL TIE2; 500 ng/50 µL tetra (LRRWSLG) for 50 ng/50 µL Aurora-A, 25 ng/50 µL PAK4, 25 ng/50 µL PDK1; 250 ng/50 µL tetra (LRRWSLG) for 50 ng/50 µL Aurora-B, 200 ng/50 µL Aurora-B; 125 ng/50 µL Histon H1 for 100 ng/50 µL CDK2/CycA; 250 ng/50 µL Rb-CTF for 50 ng/50 µL CDK/CycD1; 500 ng/50 µL Rb-CTF for 50 ng/50 µL CDK4/CycD1; 125 ng/50 µL Poly(ala, Glu, Lys, Tyr)6:2:5:1 for 25 ng/50 µL INS-R, 50 ng/50 µL PDGFR-beta, 100 ng/50 µL PDGFR-beta, 100 ng/50 µL FLT3, 150 ng/50 µL FLT3, 20 ng/50 µL MET, 50 ng/50 µL MET, 100 ng/50 µL MET; 250 ng/50 µL Casein for 200 ng/50 µL CK2-alpha1, 200 ng/50 µL PLK1; 1000 ng/50 µL Casein for 200 ng/50 µL PLK1, 200 ng/50 µL CK2-alpha1; 1000 ng/50 µLGSK3 (14–27) for 100 ng/50 µL AKT1; 125 ng/50 µL p53-CTM for 150 ng/50 µL CK2-alpha1, 200 ng/50 µLCK2-alpha1; 250 ng/50 µL MEK-KM for 20 ng/50 µL B-RAF-VE; autophosphorylation at ARK5, COT and SAK. After incubation (80 min, 30 °C) the reaction was stopped by adding 50 µL 2% (v/v) phosphoric acid to the reaction mixture. The microplate was washed twice with 200 µL 0.9% (v/v) saturated sodium chloride or water. The measured radioactivity, conditioned by the incorporation of [γ-^33P]-phosphate, is proportional to kinase activity. Furthermore, low control and high control were measured to determine the residual activity (%). As low controls, mixtures with substrate, but without enzyme were used to determine the unspecific binding of [γ-^33P]-phosphate to the well plate. Mixtures with enzyme, but without inhibitor were used as high controls to determine maximum enzyme activity. The IC50-values of the distinct compounds were calculated with Quattro Workflow V1.1.0.8 (Quattro Research GmbH, München, Germany). Dose response curves were generated by measurement of the residual activity of ten different inhibitor concentrations (0.1 mM, 30.0 µM, 10 µM, 3.0 µM, 1.0 µM, 0.3 µM, 0.1 µM, 30.0 nM, 10.0 nM and 3.0 nM). […]

VEGF-R3 = biological target: T2, VEGF-R3 (Homo sapiens, UniProt P35916)
T2 construct: host or cells: Sf9 (baculovirus)
T2 sequence (P35916 25-1363): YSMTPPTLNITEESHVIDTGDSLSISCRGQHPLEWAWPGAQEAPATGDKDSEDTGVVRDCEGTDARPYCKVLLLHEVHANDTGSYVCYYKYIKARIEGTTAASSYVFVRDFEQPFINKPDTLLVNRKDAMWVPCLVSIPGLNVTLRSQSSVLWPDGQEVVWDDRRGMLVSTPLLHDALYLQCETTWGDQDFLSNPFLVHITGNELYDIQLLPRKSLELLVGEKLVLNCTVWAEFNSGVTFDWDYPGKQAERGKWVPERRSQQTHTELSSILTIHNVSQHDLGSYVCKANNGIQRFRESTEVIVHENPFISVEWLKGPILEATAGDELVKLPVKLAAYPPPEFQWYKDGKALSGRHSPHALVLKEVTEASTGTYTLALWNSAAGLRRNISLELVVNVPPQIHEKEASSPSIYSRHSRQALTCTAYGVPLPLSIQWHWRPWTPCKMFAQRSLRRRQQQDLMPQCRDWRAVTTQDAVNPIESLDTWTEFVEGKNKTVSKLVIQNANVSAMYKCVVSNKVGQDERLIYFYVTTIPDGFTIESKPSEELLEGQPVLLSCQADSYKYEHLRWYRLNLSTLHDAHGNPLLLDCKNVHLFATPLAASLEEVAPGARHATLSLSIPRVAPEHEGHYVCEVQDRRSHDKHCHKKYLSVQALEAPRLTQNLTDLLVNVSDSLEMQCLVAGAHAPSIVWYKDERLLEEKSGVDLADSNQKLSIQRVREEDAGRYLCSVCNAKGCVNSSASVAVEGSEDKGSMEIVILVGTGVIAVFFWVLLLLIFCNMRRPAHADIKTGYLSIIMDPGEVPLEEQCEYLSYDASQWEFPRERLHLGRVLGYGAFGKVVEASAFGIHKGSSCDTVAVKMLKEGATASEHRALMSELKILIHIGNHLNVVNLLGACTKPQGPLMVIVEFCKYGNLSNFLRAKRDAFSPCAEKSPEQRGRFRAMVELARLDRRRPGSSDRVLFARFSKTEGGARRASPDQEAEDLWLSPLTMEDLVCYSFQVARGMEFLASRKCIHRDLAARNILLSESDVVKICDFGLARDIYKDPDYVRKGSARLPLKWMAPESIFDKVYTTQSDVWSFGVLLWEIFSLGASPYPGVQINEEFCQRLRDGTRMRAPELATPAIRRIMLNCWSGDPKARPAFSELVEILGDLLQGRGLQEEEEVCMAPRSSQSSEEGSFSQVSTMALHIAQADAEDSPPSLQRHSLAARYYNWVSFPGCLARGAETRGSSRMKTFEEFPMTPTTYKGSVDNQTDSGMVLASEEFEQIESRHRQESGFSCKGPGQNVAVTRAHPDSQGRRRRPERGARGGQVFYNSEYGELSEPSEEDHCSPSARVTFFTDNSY
Experimental: as §1, §2

Aurora-B = biological target: T3, Aurora-B (Homo sapiens, UniProt Q96GD4)
T3 construct: host or cells: Sf9 (baculovirus)
T3 sequence (Q96GD4 whole entry): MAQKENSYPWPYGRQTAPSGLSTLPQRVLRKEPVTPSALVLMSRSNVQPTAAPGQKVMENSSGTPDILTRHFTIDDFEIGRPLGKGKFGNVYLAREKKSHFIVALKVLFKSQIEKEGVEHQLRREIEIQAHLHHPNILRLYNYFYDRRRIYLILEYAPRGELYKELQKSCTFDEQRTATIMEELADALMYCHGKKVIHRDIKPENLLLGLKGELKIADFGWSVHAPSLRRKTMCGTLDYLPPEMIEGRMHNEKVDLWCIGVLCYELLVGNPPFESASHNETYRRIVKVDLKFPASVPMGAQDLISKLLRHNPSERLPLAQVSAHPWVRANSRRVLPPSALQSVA
Experimental: as §1, §2

Aurora-A = biological target: T4, Aurora-A (Homo sapiens, UniProt O14965)
T4 construct: host or cells: Sf9 (baculovirus)
T4 sequence (O14965 1-403): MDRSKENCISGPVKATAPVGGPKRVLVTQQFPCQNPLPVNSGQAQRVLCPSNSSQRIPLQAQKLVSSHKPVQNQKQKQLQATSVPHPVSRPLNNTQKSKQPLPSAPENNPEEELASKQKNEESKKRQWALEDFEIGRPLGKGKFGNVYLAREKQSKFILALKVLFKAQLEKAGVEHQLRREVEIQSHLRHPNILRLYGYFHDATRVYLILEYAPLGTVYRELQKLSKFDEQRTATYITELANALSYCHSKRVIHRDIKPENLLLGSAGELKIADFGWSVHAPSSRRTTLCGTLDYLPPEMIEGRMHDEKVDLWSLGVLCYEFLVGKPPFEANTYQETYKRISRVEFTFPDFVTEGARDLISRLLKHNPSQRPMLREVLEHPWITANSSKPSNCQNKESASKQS
Experimental: as §1, §2

T1 sequence (P35968 20-1356): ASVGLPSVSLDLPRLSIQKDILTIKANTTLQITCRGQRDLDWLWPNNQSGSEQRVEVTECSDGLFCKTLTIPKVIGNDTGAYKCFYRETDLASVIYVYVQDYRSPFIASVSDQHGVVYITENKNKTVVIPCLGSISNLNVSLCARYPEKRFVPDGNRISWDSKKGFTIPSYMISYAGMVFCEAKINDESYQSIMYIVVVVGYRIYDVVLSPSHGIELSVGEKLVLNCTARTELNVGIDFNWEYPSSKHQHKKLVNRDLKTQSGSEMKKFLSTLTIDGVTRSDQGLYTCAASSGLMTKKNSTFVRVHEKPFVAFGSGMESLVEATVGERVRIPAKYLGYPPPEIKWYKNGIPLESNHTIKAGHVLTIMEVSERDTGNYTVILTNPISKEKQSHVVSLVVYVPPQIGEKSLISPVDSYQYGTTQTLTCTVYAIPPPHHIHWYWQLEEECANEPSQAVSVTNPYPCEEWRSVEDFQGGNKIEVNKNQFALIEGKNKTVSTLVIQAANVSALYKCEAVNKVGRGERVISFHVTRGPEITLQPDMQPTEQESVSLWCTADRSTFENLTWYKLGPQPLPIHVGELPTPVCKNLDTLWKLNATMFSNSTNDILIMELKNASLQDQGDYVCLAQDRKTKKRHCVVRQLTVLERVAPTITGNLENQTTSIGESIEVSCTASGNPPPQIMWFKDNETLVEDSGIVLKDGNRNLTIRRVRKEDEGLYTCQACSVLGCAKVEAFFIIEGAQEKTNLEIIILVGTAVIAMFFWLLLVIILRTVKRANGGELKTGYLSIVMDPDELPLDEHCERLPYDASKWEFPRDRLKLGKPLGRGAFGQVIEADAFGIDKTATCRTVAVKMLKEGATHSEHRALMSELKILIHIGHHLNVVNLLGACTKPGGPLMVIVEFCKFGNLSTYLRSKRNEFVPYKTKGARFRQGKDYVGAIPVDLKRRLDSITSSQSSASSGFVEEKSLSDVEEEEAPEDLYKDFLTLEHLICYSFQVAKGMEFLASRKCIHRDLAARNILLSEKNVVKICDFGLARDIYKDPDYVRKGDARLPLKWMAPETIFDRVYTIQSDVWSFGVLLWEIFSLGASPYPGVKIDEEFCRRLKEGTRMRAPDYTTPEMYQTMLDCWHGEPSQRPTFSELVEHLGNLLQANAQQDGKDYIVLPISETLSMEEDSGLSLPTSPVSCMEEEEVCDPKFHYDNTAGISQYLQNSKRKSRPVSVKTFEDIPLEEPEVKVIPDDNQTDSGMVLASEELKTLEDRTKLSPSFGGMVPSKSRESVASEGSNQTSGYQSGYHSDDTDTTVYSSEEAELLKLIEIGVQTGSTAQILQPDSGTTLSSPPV

SMILES	IC50 (VEGF-R2) [nM]	IC50 (VEGF-R3) [nM]	IC50 (Aurora-B) [nM]	IC50 (Aurora-A) [nM]
O=C1CCCc2cc(-c3ccnc(Nc4ccc(O)cc4)n3)ccc2N1 [Compound 2e, 7-[2-(4-Hydroxyanilino)pyrimidin-4-yl]-1,3,4,5-tetrahydro-2H-1-benzazepin-2-one]	1100	1500	3500	990
O=C1CCCc2cc(-c3ccnc(Nc4ccccc4)n3)ccc2N1 [Compound 2a, 7-(2-Anilinopyrimidin-4-yl)-1,3,4,5-tetrahydro-2H-1-benzazepin-2-one]	2800	5900	26000	2400
COc1ccc(Nc2nccc(-c3ccc4c(c3)CCCC(=O)N4)n2)cc1O [Compound 2n, 7-[2-(3-Hydroxy-4-methoxyanilino)pyrimidin-4-yl]-1,3,4,5-tetrahydro-2H-1-benzazepin-2-one]	630	550	4500	1400
